From ChEMBL document CHEMBL1800001, “Biophysical mapping of the adenosine A2A receptor” (J Med Chem, 2011) come the findings set out here.

For assay [1], the target named is T1, Adenosine receptor A2a (Homo sapiens, UniProt P29274). The assay can be described thus: Displacement of [3H]ZM241385 from wild type human adenosine receptor A2a expressed in HEK293 cells. (In general: Displacement assays read how much labelled ligand stays bound in the presence of the test substance.)
Assay [2] concerns the target T1, Adenosine receptor A2a. As to the kind of experiment: Displacement of [3H]ZM241385 from stabilized human adenosine receptor A2a expressed in HEK293 cells followed by receptor capturing on Biocore chips by SPR method.

T1 sequence (P29274 whole entry, looked up): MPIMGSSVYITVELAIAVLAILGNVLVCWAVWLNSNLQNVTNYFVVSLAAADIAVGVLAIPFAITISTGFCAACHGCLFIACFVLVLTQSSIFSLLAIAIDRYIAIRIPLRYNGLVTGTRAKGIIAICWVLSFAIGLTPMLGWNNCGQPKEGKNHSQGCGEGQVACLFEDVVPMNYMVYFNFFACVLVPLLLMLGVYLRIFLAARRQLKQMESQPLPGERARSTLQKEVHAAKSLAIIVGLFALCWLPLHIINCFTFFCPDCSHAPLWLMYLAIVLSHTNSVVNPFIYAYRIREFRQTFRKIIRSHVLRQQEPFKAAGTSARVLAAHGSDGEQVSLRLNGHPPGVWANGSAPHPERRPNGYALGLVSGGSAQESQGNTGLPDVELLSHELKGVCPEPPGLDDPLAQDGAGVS

In general, pKi refers to the negative decadic logarithm of the Ki, by convention in mol/L. The low end stands for a high Ki, the high end for a low Ki. The term pKd denotes −log10 of the Kd, conventionally taken in molar units. High values mean a small Kd, low ones a large Kd. The molecule `COCCOc1ccc(N2CCN(CCn3ncc4c3nc(N)n3nc(-c5ccco5)nc43)CC2)cc1` [PRELADENANT] gave a pKi at Adenosine receptor A2a [1] of 8.8. The pKd on Adenosine receptor A2a [2] amounted to 9.5.

`CN1CCN(C(=O)c2cccc(-c3nc(N)nc(-c4ccccc4O)n3)c2)CC1` registered a pKi on Adenosine receptor A2a [1] of 9. For the same molecule, the pKd on Adenosine receptor A2a [2] is on record as 7.9.

The molecule `Nc1nc(-c2ccccc2O)nc(N2Cc3ccc(F)cc3C2)n1` registered a pKi at Adenosine receptor A2a [1] of 7.9. This molecule also returned a pKd at Adenosine receptor A2a [2] of 6.
